# Tested on: DMBA-induced rat mammary adenocarcinomas
# Assay: Anti-tumour effect in vivo against DMBA-induced rat mammary adenocarcinomas
# Conditions: 3 mg/kg, daily for five weeks, female rats; control 3
# Procedure: The anti-tumour effect was investigated in vivo against DMBA-induced rat mammary adenocarcinomas by the following method. Mammary adenocarcinoma was induced with DMBA in 50±2 days old female rats. Treatment with the compound under test was started after palpable tumours had appeared. Tumour size and amount of tumours were evaluated once a week. Tumour sizes in the control group, treated with solvent, were compared with the test groups. Daily administration schedule was employed for five weeks and animals were sacrificed. The change in tumour sizes was evaluated. Results were evaluated as changes in the sizes of tumours and divided into three groups, namely increasing, stable and decreasing sizes of tumours.
row,SMILES,Number of tumours decreasing
1,"c1ccc(C(CCCc2c[nH]cn2)c2ccccc2)cc1 [Compound 9a, 4-(4,4-diphenylbutyl)-1H-imidazole]",2

# Same assay, conditions: 3 mg/kg, daily for five weeks, female rats; control 21
row,SMILES,Number of tumours stable
1,"c1ccc(C(CCCc2c[nH]cn2)c2ccccc2)cc1 [Compound 9a, 4-(4,4-diphenylbutyl)-1H-imidazole]",14

# Same assay, conditions: 3 mg/kg, daily for five weeks, female rats; control 42
row,SMILES,Number of tumours increasing
1,"c1ccc(C(CCCc2c[nH]cn2)c2ccccc2)cc1 [Compound 9a, 4-(4,4-diphenylbutyl)-1H-imidazole]",37

# Same assay, conditions: 30 mg/kg, daily for five weeks, female rats; control 3
row,SMILES,Number of tumours decreasing
1,"c1ccc(C(CCCc2c[nH]cn2)c2ccccc2)cc1 [Compound 9a, 4-(4,4-diphenylbutyl)-1H-imidazole]",21

# Same assay, conditions: 30 mg/kg, daily for five weeks, female rats; control 21
row,SMILES,Number of tumours stable
1,"c1ccc(C(CCCc2c[nH]cn2)c2ccccc2)cc1 [Compound 9a, 4-(4,4-diphenylbutyl)-1H-imidazole]",3

# Same assay, conditions: 30 mg/kg, daily for five weeks, female rats; control 42
row,SMILES,Number of tumours increasing
1,"c1ccc(C(CCCc2c[nH]cn2)c2ccccc2)cc1 [Compound 9a, 4-(4,4-diphenylbutyl)-1H-imidazole]",15

# Molecular target: desmolase (CSCC)
# Assay: Cholesterol side chain cleavage (CSCC, desmolase) inhibition, mitochondrial fraction from human placenta or bovine adrenals
# Type: biochemical
# Conditions: substrate 5 μM, 30 min, 37° C., read-out: IC-50 CSCC (desmolase)
row,SMILES,IC50
1,"Cc1ccc(C(CCCc2c[nH]cn2)c2ccccc2)cc1 (centres unmarked) [Compound 1a, 4-[4-(4-methylphenyl)-4-phenylbutyl]-1H-imidazole]",96 µM
2,"Fc1ccc(C(CCCCc2ccccc2)c2c[nH]cn2)cc1 (centres unmarked) [Compound 1c, 4-[1-(4-fluorophenyl)-5-phenylpentyl]-1H-imidazole]",19 µM
3,"Cc1ccc(C(CCCc2cncn2Cc2ccccc2)c2ccccc2)cc1 (centres unmarked) [Compound 2a, 1-benzyl-5-[4-(4-methylphenyl)-4-phenylbutyl]-1H-imidazole]",50 µM
4,"Cc1ccccc1CCCCC(c1ccc(F)cc1)c1c[nH]cn1 (centres unmarked) [Compound 2c, 4-[1-(4-fluorophenyl)-5-(2-methylphenyl)pentyl]-1H-imidazole]",16 µM
5,"Cc1cccc(C(CCCc2cncn2Cc2ccccc2)c2ccccc2)c1 (centres unmarked) [Compound 3a, 1-benzyl-5-[4-(3-methylphenyl)-4-phenylbutyl]-1H-imidazole]",38 µM
6,"Cc1cccc(CCCCC(c2ccc(F)cc2)c2c[nH]cn2)c1 (centres unmarked) [Compound 3c, 4-[1-(4-fluorophenyl)-5-(3-methylphenyl)pentyl]-1H-imidazole]",57 µM
7,"Cc1cccc(C(CCCc2c[nH]cn2)c2ccccc2)c1 (centres unmarked) [Compound 4a, 4-(4-(3-methylphenyl)-4-phenylbutyl]-1H-imidazole]",7.5 µM
8,"Cc1ccc(CCCCC(c2ccc(F)cc2)c2c[nH]cn2)cc1 (centres unmarked) [Compound 4c, 4-[1-(4-fluorophenyl)-5-(4-methylphenyl)pentyl]-1H-imidazole]",170 µM
9,"Cc1ccccc1C(CCCc1c[nH]cn1)c1ccccc1 (centres unmarked) [Compound 5a, 4-[4-(2-methylphenyl)-4-phenylbutyl]-1H-imidazole]",29 µM
10,"Cc1cc(C)cc(CCCCC(c2ccc(F)cc2)c2c[nH]cn2)c1 (centres unmarked) [Compound 5c, 4-[5-(3,5-dimethylphenyl)-1-(4-fluorophenyl)-pentyl]-1H-imidazole]",80 µM
11,"Cc1ccccc1C(CCCc1cncn1Cc1ccccc1)c1ccccc1 (centres unmarked) [Compound 6a, 1-benzyl-5-[4-(2-methylphenyl)-4-phenylbutyl]-1H-imidazole]",32 µM
12,"c1ccc(CCC(c2ccccc2)c2c[nH]cn2)cc1 (centres unmarked) [Compound 7c, 4-(1,3-diphenylpropyl)-1H-imidazole]",7.5 µM
13,"c1ccc(CC(CCCc2c[nH]cn2)c2ccccc2)cc1 (centres unmarked) [Compound 8a, 4-(4,5-diphenylpentyl)-1H-imidazole]",27 µM
14,"c1ccc(C(CCCc2c[nH]cn2)c2ccccc2)cc1 [Compound 9a, 4-(4,4-diphenylbutyl)-1H-imidazole]",320 µM
15,"Fc1ccc(C(CCc2ccccc2)c2c[nH]cn2)cc1 (centres unmarked) [Compound 9c, 4-[1-(4-fluorophenyl)-3-phenylpropyl]-1H-imidazole]",22 µM
16,"Fc1ccc(C(CCCc2ccccc2)c2c[nH]cn2)cc1 (centres unmarked) [Compound 10c, 4-[1-(4-fluorophenyl)-4-phenylbutyl]-1H-imidazole]",31 µM
17,"COc1ccc(C(CCCc2c[nH]cn2)c2ccccc2)cc1 (centres unmarked) [Compound 11a, 4-[4-(4-methoxyphenyl)-4-phenylbutyl]-1H-imidazole]",190 µM
18,"COc1cccc(CCCCC(c2ccc(F)cc2)c2c[nH]cn2)c1 (centres unmarked) [Compound 11c, 4-[1-(4-fluorophenyl)-5-(3-methoxyphenyl)pentyl]-1H-imidazole]",12 µM
19,"COc1ccc(C(CCCc2c[nH]cn2)c2ccc(OC)cc2)cc1 [Compound 12a, 4-[4,4-bis(4-methoxyphenyl)butyl]-1H-imidazole]",46 µM
20,"COc1ccc(CCCCC(c2ccc(F)cc2)c2c[nH]cn2)cc1 (centres unmarked) [Compound 12c, 4-[1-(4-fluorophenyl)-5-(4-methoxyphenyl)pentyl]-1H-imidazole]",22.5 µM
21,"Cc1cccc(C(CCCc2c[nH]cn2)c2cccc(C)c2)c1 [Compound 13a, 4-[4,4-bis(3-methylphenyl)butyl]-1H-imidazole]",48 µM

row,SMILES,IC50
1,"Cc1cccc(C)c1CCCCC(c1ccc(F)cc1)c1c[nH]cn1 (centres unmarked) [Compound 13c, 4-[1-(4-fluorophenyl)-5-(2,6-dimethylphenyl)-pentyl]-1H-imidazole]",31 µM
2,"Cc1cc(C)cc(C(CCCc2c[nH]cn2)c2ccccc2)c1 (centres unmarked) [Compound 14a, 4-[4-(3,5-dimethylphenyl)-4-phenylbutyl]-1H-imidazole]",65 µM
3,"Fc1ccc(CCC(c2ccc(F)cc2)c2c[nH]cn2)cc1 (centres unmarked) [Compound 14c, 4-[1,3-bis(4-fluorophenyl)propyl]-1H-imidazole]",22 µM
4,"Cc1ccc(C(CCCc2c[nH]cn2)c2ccccc2)cc1C (centres unmarked) [Compound 15a, 4-[4-(3,4-dimethylphenyl)-4-phenylbutyl]-1H-imidazole]",39 µM
5,"Fc1ccc(CCCC(c2ccc(F)cc2)c2c[nH]cn2)cc1 (centres unmarked) [Compound 15c, 4-[1,4-bis(4-fluorophenyl)butyl]-1H-imidazole]",29 µM
6,"Cc1cccc(C(CCCc2c[nH]cn2)c2cc(C)cc(C)c2)c1 (centres unmarked) [Compound 16a, 4-[4-(3,5-dimethylphenyl)-4-(3-methylphenyl)butyl]-1H-imidazole]",95 µM
7,"c1ccc(CCC(Cc2c[nH]cn2)c2ccccc2)cc1 (centres unmarked) [Compound 16c, 4-(2,4-diphenylbutyl)-1H-imidazole]",12 µM
8,"Cc1ccc(C(CCCc2c[nH]cn2)c2ccc(C)cc2)cc1 [Compound 17a, 4-[4,4-bis(4-methylphenyl)butyl]-1H-imidazole]",110 µM
9,"Fc1ccc(C(CCc2ccccc2)Cc2c[nH]cn2)cc1 (centres unmarked) [Compound 17c, 4-[2-(4-fluorophenyl)-4-phenylbutyl]-1H-imidazole]",28 µM
10,"c1ccc(C(CCCCc2c[nH]cn2)c2ccccc2)cc1 [Compound 18a, 4-(5,5-diphenylpentyl)-1H-imidazole]",68 µM
11,"Fc1ccc(CCC(Cc2c[nH]cn2)c2ccc(F)cc2)cc1 (centres unmarked) [Compound 18c, 4-[2,4-bis(4-fluorophenyl)butyl]-1H-imidazole]",20 µM
12,"c1ccc(C(CCCCCc2c[nH]cn2)c2ccccc2)cc1 [Compound 19a, 4-(6,6-diphenylhexyl)-1H-imidazole]",61 µM
13,"N#Cc1ccc(C(CCc2ccc(F)cc2)Cc2c[nH]cn2)cc1 (centres unmarked) [Compound 19c, 4-[2-(4-cyanophenyl)-4-(4-fluorophenyl)butyl]-1H-imidazole]",6.6 µM
14,"Fc1ccccc1C(CCCc1c[nH]cn1)c1ccccc1 (centres unmarked) [Compound 20a, 4-[4-(2-fluorophenyl)-4-phenylbutyl]-1H-imidazole]",38 µM
15,"Fc1ccc(C(CCCc2c[nH]cn2)c2ccccc2)cc1 (centres unmarked) [Compound 21a, 4-[4-(4-fluorophenyl)-4-phenylbutyl]-1H-imidazole]",80 µM
16,"C(=Cc1c[nH]cn1)CC(c1ccccc1)c1ccccc1 [Compound 22a, 4-(4,4-diphenyl-1-butenyl)-1H-imidazole]",165 µM
17,"Fc1ccc(C(CCCc2c[nH]cn2)c2ccc(F)cc2)cc1 [Compound 23a, 4-[4,4-bis(4-fluorophenyl)butyl]-1H-imidazole]",175 µM
18,"O=[N+]([O-])c1ccc(C(CCCc2c[nH]cn2)c2ccc([N+](=O)[O-])cc2)cc1 [Compound 24a, 4-[4,4-bis(4-nitrophenyl)butyl]-1H-imidazole]",37 µM
19,"Nc1ccc(C(CCCc2c[nH]cn2)c2ccc(N)cc2)cc1 [Compound 25a, 4-[4,4-bis(4-aminophenyl)butyl]-1H-imidazole]",210 µM
20,"CCc1ccc(C(CCCc2c[nH]cn2)c2ccccc2)cc1 (centres unmarked) [Compound 26a, 4-[4-(4-ethylphenyl)-4-phenylbutyl]-1H-imidazole]",65 µM

# Reference: patent US5439928A, “Aromatase inhibiting 4(5)-imidazoles” (Orion-yhtyma Oy, priority 1993, dated 1995)
